The results in this text go back to US6645991B1, “αvβ3 integrin inhibitors” (Merck Patent GmbH, priority 1999, dated 2003).

The experiment has as its target receptor αvβ3 (Homo sapiens, UniProt P05106+P06756). As to the kind of experiment: vitronectin binding test (method of Smith et al.). An excerpt:
For the vitronectin binding test, the IC50 value is given, i.e. the concentration in nmol/litre which inhibits 50% of the vitronectin binding to the corresponding isolated receptor (method of Smith et al., J. Biol. Chem. 265, 12267-71, 1990).

Chain of receptor αvβ3 (P06756 31-889 limits assumed): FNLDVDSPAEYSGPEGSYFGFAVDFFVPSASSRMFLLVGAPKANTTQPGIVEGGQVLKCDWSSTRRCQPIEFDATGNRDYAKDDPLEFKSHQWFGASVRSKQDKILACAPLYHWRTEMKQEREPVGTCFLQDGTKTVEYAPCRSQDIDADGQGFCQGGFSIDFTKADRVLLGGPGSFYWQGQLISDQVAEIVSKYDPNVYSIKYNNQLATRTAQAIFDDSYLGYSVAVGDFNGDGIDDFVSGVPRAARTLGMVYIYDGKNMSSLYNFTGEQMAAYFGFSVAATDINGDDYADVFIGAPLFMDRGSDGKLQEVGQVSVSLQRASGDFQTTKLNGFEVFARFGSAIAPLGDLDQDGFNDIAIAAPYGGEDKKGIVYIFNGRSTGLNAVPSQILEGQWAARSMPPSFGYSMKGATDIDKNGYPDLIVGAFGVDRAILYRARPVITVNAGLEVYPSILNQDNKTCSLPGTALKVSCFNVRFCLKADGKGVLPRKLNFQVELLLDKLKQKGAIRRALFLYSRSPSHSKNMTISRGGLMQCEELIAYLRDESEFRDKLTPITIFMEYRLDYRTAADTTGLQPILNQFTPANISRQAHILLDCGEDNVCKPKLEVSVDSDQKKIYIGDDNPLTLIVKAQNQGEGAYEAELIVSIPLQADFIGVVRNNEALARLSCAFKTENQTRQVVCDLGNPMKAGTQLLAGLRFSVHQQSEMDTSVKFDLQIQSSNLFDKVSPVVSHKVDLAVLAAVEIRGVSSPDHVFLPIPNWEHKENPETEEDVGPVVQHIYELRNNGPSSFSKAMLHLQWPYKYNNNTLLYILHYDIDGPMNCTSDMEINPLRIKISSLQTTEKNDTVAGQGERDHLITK
Chain of receptor αvβ3 (P06756 891-1048 limits assumed): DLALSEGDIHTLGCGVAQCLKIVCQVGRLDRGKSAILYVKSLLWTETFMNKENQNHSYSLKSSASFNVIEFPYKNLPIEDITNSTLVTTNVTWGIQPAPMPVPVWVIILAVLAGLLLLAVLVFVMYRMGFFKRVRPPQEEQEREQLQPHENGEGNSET
Chain of receptor αvβ3 (P05106 27-788): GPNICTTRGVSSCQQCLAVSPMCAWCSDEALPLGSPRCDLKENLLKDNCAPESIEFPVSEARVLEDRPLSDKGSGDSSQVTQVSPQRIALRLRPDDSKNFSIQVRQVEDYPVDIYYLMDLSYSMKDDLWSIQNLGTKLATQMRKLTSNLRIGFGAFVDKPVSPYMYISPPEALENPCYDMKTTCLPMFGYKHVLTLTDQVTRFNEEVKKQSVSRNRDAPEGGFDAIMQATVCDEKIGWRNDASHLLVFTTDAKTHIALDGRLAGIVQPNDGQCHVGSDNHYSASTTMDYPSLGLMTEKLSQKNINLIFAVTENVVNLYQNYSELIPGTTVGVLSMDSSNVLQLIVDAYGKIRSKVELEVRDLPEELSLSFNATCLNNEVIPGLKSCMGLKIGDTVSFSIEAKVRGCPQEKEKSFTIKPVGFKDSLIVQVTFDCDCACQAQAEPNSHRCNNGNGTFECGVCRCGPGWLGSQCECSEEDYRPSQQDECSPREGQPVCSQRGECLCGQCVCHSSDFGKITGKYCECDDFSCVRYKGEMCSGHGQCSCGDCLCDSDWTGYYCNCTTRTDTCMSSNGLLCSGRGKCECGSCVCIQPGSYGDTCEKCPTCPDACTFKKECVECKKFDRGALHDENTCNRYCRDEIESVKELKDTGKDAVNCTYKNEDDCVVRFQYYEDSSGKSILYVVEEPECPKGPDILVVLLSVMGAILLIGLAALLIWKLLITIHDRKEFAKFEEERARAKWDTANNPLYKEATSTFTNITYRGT

In the case of `O=C(O)CC(Cc1ccc(OCCCNc2ccccn2)cc1)c1ccccc1` (centres unmarked) [3-phenyl-4-{4-[3-(pyridin-2-ylamino)propoxy]phenyl}butyric acid], the IC50 (concentration which inhibits 50% of the vitronectin binding to the isolated receptor) amounted to 5.3 nM. Besides, for the setting “qualitative statement”, the “Inhibition of vitronectin binding to the receptor αvβ3” value is reported as “demonstrated experimentally”.

What is called IC50 is the concentration that gives 50% inhibition. Read a high IC50 as weaker potency.
